Measured values taken from patent US7655662B2, “(Indazol-5-yl)-pyrazines and (1,3-dihydro-indol-2-one)-pyrazines for treating glaucoma and controlling intraocular pressure” (Alcon Research, Ltd., priority 2005, dated 2010).
pIC50: −log10 of the molar value. Where a name gives a salt, the structure may show the parent alone.

What follows are compounds tested against T1, Human recombinant Rho kinase (ROKα/ROCK-II, (aa 11-552)) (Homo sapiens, UniProt O75116) (assay: Rho kinase II (ROCK II) IMAP fluorescence polarization inhibition assay). Settings: IMAP ROCK II kit; substrate 200 nM, ATP 10 μM; 60 min at 23° C.; read-out: Rho kinase II Binding Data IC50.
T1 construct: Human recombinant Rho kinase (ROKα/ROCK-II, (aa 11-552), human active); purchased Upstate Biotechnology Co., Lake Placid, N.Y. 14-451
T1 sequence (O75116 11-552): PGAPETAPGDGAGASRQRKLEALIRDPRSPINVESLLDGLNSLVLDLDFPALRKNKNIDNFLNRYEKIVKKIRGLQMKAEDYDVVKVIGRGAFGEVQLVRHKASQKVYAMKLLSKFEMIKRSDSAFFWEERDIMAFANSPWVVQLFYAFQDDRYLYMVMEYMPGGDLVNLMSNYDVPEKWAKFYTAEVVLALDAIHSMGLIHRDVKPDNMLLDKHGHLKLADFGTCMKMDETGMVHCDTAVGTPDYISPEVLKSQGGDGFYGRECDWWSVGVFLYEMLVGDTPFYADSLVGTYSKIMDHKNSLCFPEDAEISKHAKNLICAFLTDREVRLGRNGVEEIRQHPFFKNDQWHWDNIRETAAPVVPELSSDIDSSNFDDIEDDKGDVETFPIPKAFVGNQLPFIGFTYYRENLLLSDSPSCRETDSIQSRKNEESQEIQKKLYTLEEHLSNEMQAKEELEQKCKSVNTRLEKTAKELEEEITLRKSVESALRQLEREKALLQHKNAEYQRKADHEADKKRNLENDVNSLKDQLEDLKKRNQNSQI
Type: biochemical
Protocol: The ability of certain compounds of Formula (I) to inhibit rho kinase is evaluated by means of in vitro assays. Human recombinant Rho kinase (ROKα/ROCK-II, (aa 11-552), human active, catalog #14-451, Upstate Biotechnology Co., Lake Placid, N.Y.), MgCl2/ATP cocktail, and enzyme substrate (Upstate) is used.
Fluorescence polarization assays are performed using a Biomek 2000 Robotic Workstation (Beckman Instruments, Palo Alto, Calif.) in a 96-well plate format. The assays are performed utilizing the IMAP ROCK II kit (Molecular Devices, Sunnyvale, Calif.) as follows. Substrate and ATP concentrations used are 200 nM and 10 μM, respectively, while the enzyme concentration is 3.96×10^−3 units per well. The substrate, enzyme, and ATP dilutions are made with the reaction buffer provided by the vendor. Test compounds are diluted in 10:10 DMSO-ethanol (vol/vol). For the actual assays, the various components are added into black, clear bottom, 96-well plates (Costar, Corning, N.Y.) in a final volume of 20 μl per well. After the enzyme reaction (60 min at 23° C.), 60 μl of the binding solution (IMAP kit, provided by vendor) is added per well and incubated for an additional 30 minutes in the dark at 23° C. Fluorescence polarization of the reaction mixtures is then measured on the Analyst™ HT instrument (Molecular Devices, Sunnyvale, Calif.).
The data generated are then analyzed using a non-linear, iterative, sigmoidal-fit computer program purchased from IDBS (Emeryville, Calif.) and as previously described (Sharif et al., J Pharmacol. Exp. Ther. 286:1094-1102, 1998; Sharif et al., J Pharmacol. Expt. Ther. 293:321-328, 2000; Sharif et al., J Ocular Pharmacol. Ther. 18:141-162, 2002a; Sharif et al., J Pharmac. Pharmacol. 54:539-547, 2002b) to generate the inhibition constants for the test compounds.

Row | SMILES | pIC50
1 | Cc1n[nH]c2ccc(-c3cncc(NC[C@@H](N)Cc4ccccc4)n3)cc12 (single isomer, unassigned) [Example 2] | 7.24
2 | Cc1n[nH]c2ccc(-c3cncc(NC[C@@H](N)Cc4ccccc4)n3)cc12 [Example 1, (S)-N^1-[6-(3-Methyl-1H-indazole-5-yl)-pyrazin-2-yl]-3-phenyl-propane-1,2-diamine dihydrochloride] | 6.72
3 | Cc1n[nH]c2ccc(-c3cncc(NCC(N)Cc4cc5ccccc5[nH]4)n3)cc12 (stereo not drawn) [Example 3] | 6.23
